# Laboratory results as given in ChEMBL document CHEMBL3885881, “DrugMatrix”.
# Species: Rattus norvegicus
# Test: DrugMatrix - Regimen: Daily Repeat
# Format: toxicity, organism-based, Sprague-Dawley
# Parameters: regimen Daily Repeat, gender Male, age 6-8 weeks
# Conditions: in vivo, po, route oral GAVAGE, […]; for BASOPHIL / EOSINOPHIL / ERYTHROCYTE COUNT / HEMATOCRIT / HEMOGLOBIN / LEUKOCYTE COUNT / LYMPHOCYTE / MEAN CORPUSCULAR HEMOGLOBIN / MEAN CORPUSCULAR HEMOGLOBIN CONCENTRATION / MEAN CORPUSCULAR VOLUME / MONOCYTE / NEUTROPHIL / PLATELET COUNT: tissue Blood; for ALANINE AMINOTRANSFERASE / ALBUMIN / ALKALINE PHOSPHATASE / ASPARTATE AMINOTRANSFERASE / BLOOD UREA NITROGEN / CARBON DIOXIDE / CHLORIDE / CHOLESTEROL / CREATINE PHOSPHOKINASE / CREATININE / GLUCOSE / LACTATE DEHYDROGENASE / LIPASE / PHOSPHORUS / POTASSIUM / SODIUM / TOTAL BILIRUBIN / TOTAL PROTEIN / URIC ACID: tissue Plasma
# [1] = 100 mg/kg, 72 h, dose level Low, time 3 day
# [2] = 100 mg/kg, 120 h, dose level Low, time 5 day
# [3] = 1200 mg/kg, 72 h, dose level High, time 3 day
# [4] = 1200 mg/kg, 120 h, dose level High, time 5 day
smiles,measurement,setting,value
Cc1c(C)c2c(c(C)c1O)CCC(C)(COc1ccc(CC3SC(=O)NC3=O)cc1)O2 (stereo not drawn) [TROGLITAZONE],BASOPHIL,[1],0%
same,EOSINOPHIL,[1],1%
same,ERYTHROCYTE COUNT,[1],6.97 x10E6/uL
same,HEMATOCRIT,[1],42.83%
same,HEMOGLOBIN,[1],14.33 G/DL
same,LEUKOCYTE COUNT,[1],7.7 x10E3/uL
same,LYMPHOCYTE,[1],77.67%
same,MEAN CORPUSCULAR HEMOGLOBIN,[1],20.57 pg
same,MEAN CORPUSCULAR HEMOGLOBIN CONCENTRATION,[1],33.5 G/DL
same,MEAN CORPUSCULAR VOLUME,[1],61.4 fL
same,MONOCYTE,[1],3%
same,NEUTROPHIL,[1],18.33%
same,PLATELET COUNT,[1],1143 x10E3/uL
same,ALANINE AMINOTRANSFERASE,[1],57.67 u/L
same,ALBUMIN,[1],4.33 G/DL
same,ALKALINE PHOSPHATASE,[1],396.67 u/L
same,ASPARTATE AMINOTRANSFERASE,[1],112.67 u/L
same,BLOOD UREA NITROGEN,[1],14.67 mg/dL
same,CARBON DIOXIDE,[1],24.67 mmol/L
same,CHLORIDE,[1],103.33 MEQ/L
same,CHOLESTEROL,[1],74.67 mg/dL
same,CREATINE PHOSPHOKINASE,[1],585.67 u/L
same,CREATININE,[1],0.3 mg/dL
same,GLUCOSE,[1],141 mg/dL
same,LACTATE DEHYDROGENASE,[1],938.33 u/L
same,LIPASE,[1],10 u/L
same,PHOSPHORUS,[1],8.83 mg/dL
same,POTASSIUM,[1],5.6 MEQ/L
same,SODIUM,[1],144.33 MEQ/L
same,TOTAL BILIRUBIN,[1],0.1 mg/dL
same,TOTAL PROTEIN,[1],5.83 G/DL
same,URIC ACID,[1],1.2 mg/dL
same,BASOPHIL,[2],0.33%
same,EOSINOPHIL,[2],0.67%
same,ERYTHROCYTE COUNT,[2],7.13 x10E6/uL
same,HEMATOCRIT,[2],43.8%
same,HEMOGLOBIN,[2],14.4 G/DL
same,LEUKOCYTE COUNT,[2],13.53 x10E3/uL
same,LYMPHOCYTE,[2],82.33%
same,MEAN CORPUSCULAR HEMOGLOBIN,[2],20.2 pg
same,MEAN CORPUSCULAR HEMOGLOBIN CONCENTRATION,[2],32.87 G/DL
same,MEAN CORPUSCULAR VOLUME,[2],61.5 fL
same,MONOCYTE,[2],1.67%
same,NEUTROPHIL,[2],15.67%
same,PLATELET COUNT,[2],873.33 x10E3/uL
same,ALANINE AMINOTRANSFERASE,[2],66.67 u/L
same,ALBUMIN,[2],4.27 G/DL
same,ALKALINE PHOSPHATASE,[2],446.67 u/L
same,ASPARTATE AMINOTRANSFERASE,[2],84.33 u/L
same,BLOOD UREA NITROGEN,[2],15 mg/dL
same,CARBON DIOXIDE,[2],23.67 mmol/L
same,CHLORIDE,[2],99.67 MEQ/L
same,CHOLESTEROL,[2],63.67 mg/dL
same,CREATINE PHOSPHOKINASE,[2],419.67 u/L
same,CREATININE,[2],0.3 mg/dL
same,GLUCOSE,[2],149 mg/dL
same,LACTATE DEHYDROGENASE,[2],313.33 u/L
same,LIPASE,[2],9.33 u/L
same,PHOSPHORUS,[2],9.73 mg/dL
same,POTASSIUM,[2],5.57 MEQ/L
same,SODIUM,[2],139.67 MEQ/L
same,TOTAL BILIRUBIN,[2],0.0667 mg/dL
same,TOTAL PROTEIN,[2],5.8 G/DL
same,URIC ACID,[2],0.87 mg/dL
same,BASOPHIL,[3],0%
same,EOSINOPHIL,[3],1%
same,ERYTHROCYTE COUNT,[3],7.21 x10E6/uL
same,HEMATOCRIT,[3],43.6%
same,HEMOGLOBIN,[3],14.63 G/DL
same,LEUKOCYTE COUNT,[3],6.47 x10E3/uL
same,LYMPHOCYTE,[3],79.33%
same,MEAN CORPUSCULAR HEMOGLOBIN,[3],20.33 pg
same,MEAN CORPUSCULAR HEMOGLOBIN CONCENTRATION,[3],33.6 G/DL
same,MEAN CORPUSCULAR VOLUME,[3],60.5 fL
same,MONOCYTE,[3],2.67%
same,NEUTROPHIL,[3],16.67%
same,PLATELET COUNT,[3],1107 x10E3/uL
same,ALANINE AMINOTRANSFERASE,[3],85.33 u/L
same,ALBUMIN,[3],4.53 G/DL
same,ALKALINE PHOSPHATASE,[3],481.33 u/L
same,ASPARTATE AMINOTRANSFERASE,[3],92.33 u/L
same,BLOOD UREA NITROGEN,[3],14.67 mg/dL
same,CARBON DIOXIDE,[3],23 mmol/L
same,CHLORIDE,[3],104 MEQ/L
same,CHOLESTEROL,[3],65.33 mg/dL
same,CREATINE PHOSPHOKINASE,[3],471 u/L
same,CREATININE,[3],0.3 mg/dL
same,GLUCOSE,[3],140.33 mg/dL
same,LACTATE DEHYDROGENASE,[3],332.33 u/L
same,LIPASE,[3],9.33 u/L
same,PHOSPHORUS,[3],8.43 mg/dL
same,POTASSIUM,[3],5.33 MEQ/L
same,SODIUM,[3],146 MEQ/L
same,TOTAL BILIRUBIN,[3],0.1 mg/dL
same,TOTAL PROTEIN,[3],6 G/DL
same,URIC ACID,[3],0.97 mg/dL
same,BASOPHIL,[4],0%
same,EOSINOPHIL,[4],1%
same,ERYTHROCYTE COUNT,[4],6.94 x10E6/uL
same,HEMATOCRIT,[4],42.1%
same,HEMOGLOBIN,[4],13.63 G/DL
same,LEUKOCYTE COUNT,[4],9.2 x10E3/uL
same,LYMPHOCYTE,[4],81%
same,MEAN CORPUSCULAR HEMOGLOBIN,[4],19.63 pg
same,MEAN CORPUSCULAR HEMOGLOBIN CONCENTRATION,[4],32.4 G/DL
same,MEAN CORPUSCULAR VOLUME,[4],60.63 fL
same,MONOCYTE,[4],2.33%
same,NEUTROPHIL,[4],16%
same,PLATELET COUNT,[4],801.33 x10E3/uL
same,ALANINE AMINOTRANSFERASE,[4],58 u/L
same,ALBUMIN,[4],4.3 G/DL
same,ALKALINE PHOSPHATASE,[4],406.67 u/L
same,ASPARTATE AMINOTRANSFERASE,[4],77.33 u/L
same,BLOOD UREA NITROGEN,[4],16 mg/dL
same,CARBON DIOXIDE,[4],25 mmol/L
same,CHLORIDE,[4],99.33 MEQ/L
same,CHOLESTEROL,[4],64.33 mg/dL
same,CREATINE PHOSPHOKINASE,[4],451.67 u/L
same,CREATININE,[4],0.3 mg/dL
same,GLUCOSE,[4],149 mg/dL
same,LACTATE DEHYDROGENASE,[4],118.67 u/L
same,LIPASE,[4],8.67 u/L
same,PHOSPHORUS,[4],9.07 mg/dL
same,POTASSIUM,[4],5.67 MEQ/L
same,SODIUM,[4],138 MEQ/L
same,TOTAL BILIRUBIN,[4],0.1 mg/dL
same,TOTAL PROTEIN,[4],5.77 G/DL
same,URIC ACID,[4],1.1 mg/dL
